Where a name gives a salt, the structure may show the parent alone. Activity calls are given as the source filed them. No cut-off for these calls is given here.
Legend:
[1] = system: Echinochloa crus-galli; assay: Herbicidal activity against Echinochloa crus-galli (barnyard grass) assessed as inhibition at 100 ug/ml by barnyardgrass cup test; format: functional
[2] = system: Echinochloa crus-galli; assay: Herbicidal activity against Echinochloa crus-galli (barnyard grass) assessed as inhibition at 10 ug/ml by barnyardgrass cup test; format: functional
[3] = molecular target: Ketol-acid reductoisomerase, chloroplastic (Oryza sativa subsp. japonica, UniProt Q65XK0); assay: Inhibition of Oryza sativa KARI (rice)
Ketol-acid reductoisomerase, chloroplastic, sequence (Q65XK0 whole entry): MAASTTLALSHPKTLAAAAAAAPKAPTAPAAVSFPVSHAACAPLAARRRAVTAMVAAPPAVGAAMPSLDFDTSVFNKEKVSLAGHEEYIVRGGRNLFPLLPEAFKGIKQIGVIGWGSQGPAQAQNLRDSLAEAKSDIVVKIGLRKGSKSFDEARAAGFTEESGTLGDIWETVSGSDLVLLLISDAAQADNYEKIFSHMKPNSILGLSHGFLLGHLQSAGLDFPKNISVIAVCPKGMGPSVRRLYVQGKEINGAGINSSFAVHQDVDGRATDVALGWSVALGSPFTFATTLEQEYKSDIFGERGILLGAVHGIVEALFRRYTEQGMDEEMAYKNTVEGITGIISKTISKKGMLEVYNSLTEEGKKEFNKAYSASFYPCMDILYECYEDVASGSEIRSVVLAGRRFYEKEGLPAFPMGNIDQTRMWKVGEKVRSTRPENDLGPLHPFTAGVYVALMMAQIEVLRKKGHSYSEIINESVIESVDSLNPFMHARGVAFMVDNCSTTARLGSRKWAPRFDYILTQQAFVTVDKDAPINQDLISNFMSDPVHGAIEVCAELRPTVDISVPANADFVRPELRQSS

[4] = system: Brassica napus; assay: Herbicidal activity against Brassica napus (oilseed rape) assessed as inhibition at 10 ug/ml by rape toot test; format: functional
[5] = system: Brassica napus; assay: Herbicidal activity against Brassica napus (oilseed rape) assessed as inhibition at 100 ug/ml by rape toot test; format: functional
[6] = molecular target: T1, Ketol-acid reductoisomerase (NADP(+)) (Escherichia coli (strain K12), UniProt P05793); assay: Inhibition of Escherichia coli KARI
T1 sequence (P05793 whole entry): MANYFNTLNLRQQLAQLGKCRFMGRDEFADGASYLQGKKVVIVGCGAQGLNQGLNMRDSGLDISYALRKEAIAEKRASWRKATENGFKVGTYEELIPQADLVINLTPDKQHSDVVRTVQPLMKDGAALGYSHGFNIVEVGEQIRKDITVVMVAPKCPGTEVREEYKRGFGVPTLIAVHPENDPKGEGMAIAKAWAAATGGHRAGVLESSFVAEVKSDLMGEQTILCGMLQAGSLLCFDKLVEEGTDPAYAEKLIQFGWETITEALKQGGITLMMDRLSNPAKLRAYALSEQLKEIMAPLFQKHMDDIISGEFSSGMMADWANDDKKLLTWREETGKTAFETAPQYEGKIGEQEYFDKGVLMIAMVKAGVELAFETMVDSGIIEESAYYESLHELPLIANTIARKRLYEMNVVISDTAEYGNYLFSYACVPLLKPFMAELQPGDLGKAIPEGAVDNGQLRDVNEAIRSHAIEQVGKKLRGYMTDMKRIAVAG

Ki [3]	Ki [6]	SMILES	inhibition at 100 µg/mL [1]	inhibition at 10 µg/mL [2]	inhibition at 10 µg/mL [4]	inhibition at 100 µg/mL [5]	inhibition [2]
> 2080 µM	–	COc1ccc(C(=N)N)cc1 [4-METHOXYBENZIMIDAMIDE HYDROCHLORIDE]	18.3%	16.2%	6.9%	48.5%	–
> 1900 µM	–	CCOc1ccc(C(=N)N)cc1 [4-ETHOXYBENZIMIDAMIDE HYDROCHLORIDE]	24.4%	–	18.5%	57.1%	inactive
> 1670 µM	–	CC(C)Oc1ccc(C(=N)N)cc1 [4-ISOPROPOXYBENZIMIDAMIDE HYDROCHLORIDE]	–	–	–	–	–
> 1670 µM	–	CCCOc1ccc(C(=N)N)cc1 [4-PROPOXYBENZIMIDAMIDE HYDROCHLORIDE]	–	–	–	–	–
> 1710 µM	–	C=CCOc1ccc(C(=N)N)cc1 [4-(ALLYLOXY)BENZIMIDAMIDE HYDROCHLORIDE]	–	–	–	–	–
1360 µM	–	CCCCCOc1ccc(C(=N)N)cc1 [4-(PENTYLOXY)BENZIMIDAMIDE HYDROCHLORIDE]	–	–	–	–	–

More lines, now with the values behind:

SMILES	Ki [3]	Ki [6]	inhibition at 100 µg/mL [1]	inhibition at 10 µg/mL [2]	inhibition at 10 µg/mL [4]	inhibition at 100 µg/mL [5]	inhibition [2]
N=C(N)c1ccc(OCc2ccc(Cl)cc2Cl)cc1	142 µM	–	62.8%	21.8%	33.7%	95.6%	–
N=C(N)c1ccc(OCc2ccc(Cl)cc2)cc1	411 µM	–	–	–	–	–	–
CCCCOc1ccc(C(=N)N)cc1 [4-BUTOXYBENZIMIDAMIDE HYDROCHLORIDE]	3530 µM	–	–	–	–	–	–
N=C(N)c1ccc(OCc2ccccn2)cc1	> 649 µM	–	–	–	–	–	–
CCCCCCOc1ccc(C(=N)N)cc1 [4-(HEXYLOXY)BENZIMIDAMIDE HYDROCHLORIDE]	190 µM	–	52.1%	5.3%	20.4%	94%	–
CCCCCCCOc1ccc(C(=N)N)cc1 [4-(HEPTYLOXY)BENZIMIDAMIDE HYDROCHLORIDE]	61 µM	–	53%	20.1%	30.1%	96.3%	–
N=C(N)c1ccc(OCc2cccc(Cl)c2)cc1	213 µM	–	56.8%	21.5%	31.9%	95.2%	–
N=C(N)c1ccc(OCc2ccccc2F)cc1	965 µM	–	–	–	–	–	–
N=C(N)c1ccc(OCCCCCOc2ccc(C(=N)N)cc2)cc1 [PENTAMIDINE ISETHIONATE]	350 µM	382 µM	59.6%	12.6%	22.9%	90.9%	–
N=C(N)c1ccc(OCc2ccccc2)cc1 [4-(BENZYLOXY)BENZIMIDAMIDE HYDROCHLORIDE]	> 1380 µM	–	–	–	–	–	–

— ChEMBL document CHEMBL3046671, “Molecular design, synthesis and biological activities of amidines as new ketol-acid reductoisomerase inhibitors” (Chin Chem Lett, 2008)
